From patent US20090075978A1, “SUBSTITUTED PROPIOLIC ACID AMIDES AND THEIR USE FOR PRODUCING DRUGS” (Grunenthal GmbH, priority 2005, published 2009) come the findings set out here.

T2 sequence (I3LUI7 19-1212): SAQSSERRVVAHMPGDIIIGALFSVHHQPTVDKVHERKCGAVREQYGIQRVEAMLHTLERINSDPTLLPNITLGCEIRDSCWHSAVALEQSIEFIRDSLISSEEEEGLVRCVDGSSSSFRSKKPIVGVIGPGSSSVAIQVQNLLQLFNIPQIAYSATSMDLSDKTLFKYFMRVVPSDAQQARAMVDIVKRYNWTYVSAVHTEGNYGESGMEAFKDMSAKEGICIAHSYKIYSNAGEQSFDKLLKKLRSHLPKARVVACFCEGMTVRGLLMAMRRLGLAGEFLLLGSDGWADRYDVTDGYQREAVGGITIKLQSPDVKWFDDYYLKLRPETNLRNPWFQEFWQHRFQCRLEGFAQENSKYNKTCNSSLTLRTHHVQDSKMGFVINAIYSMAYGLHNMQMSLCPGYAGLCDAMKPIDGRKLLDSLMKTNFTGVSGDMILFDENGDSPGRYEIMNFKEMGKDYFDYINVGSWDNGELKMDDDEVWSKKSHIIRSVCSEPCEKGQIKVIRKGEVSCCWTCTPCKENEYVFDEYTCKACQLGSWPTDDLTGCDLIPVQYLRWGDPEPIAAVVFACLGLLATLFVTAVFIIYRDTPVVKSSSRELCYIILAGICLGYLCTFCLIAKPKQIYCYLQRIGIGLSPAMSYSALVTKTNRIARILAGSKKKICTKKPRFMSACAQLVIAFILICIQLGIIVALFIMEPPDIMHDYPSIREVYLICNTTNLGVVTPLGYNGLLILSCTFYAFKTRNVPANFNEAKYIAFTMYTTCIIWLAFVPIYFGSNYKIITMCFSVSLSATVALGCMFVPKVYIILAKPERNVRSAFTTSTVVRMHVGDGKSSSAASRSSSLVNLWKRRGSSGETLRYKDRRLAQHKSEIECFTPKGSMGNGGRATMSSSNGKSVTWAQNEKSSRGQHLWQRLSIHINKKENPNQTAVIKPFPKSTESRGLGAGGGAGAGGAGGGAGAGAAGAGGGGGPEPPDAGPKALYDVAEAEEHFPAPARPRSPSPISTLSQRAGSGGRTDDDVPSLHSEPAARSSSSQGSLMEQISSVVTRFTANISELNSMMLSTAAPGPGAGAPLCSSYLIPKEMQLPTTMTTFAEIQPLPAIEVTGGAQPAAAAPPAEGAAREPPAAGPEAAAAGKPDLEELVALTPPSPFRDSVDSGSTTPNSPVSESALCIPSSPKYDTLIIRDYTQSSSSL
T1 sequence (P41594 21-1212): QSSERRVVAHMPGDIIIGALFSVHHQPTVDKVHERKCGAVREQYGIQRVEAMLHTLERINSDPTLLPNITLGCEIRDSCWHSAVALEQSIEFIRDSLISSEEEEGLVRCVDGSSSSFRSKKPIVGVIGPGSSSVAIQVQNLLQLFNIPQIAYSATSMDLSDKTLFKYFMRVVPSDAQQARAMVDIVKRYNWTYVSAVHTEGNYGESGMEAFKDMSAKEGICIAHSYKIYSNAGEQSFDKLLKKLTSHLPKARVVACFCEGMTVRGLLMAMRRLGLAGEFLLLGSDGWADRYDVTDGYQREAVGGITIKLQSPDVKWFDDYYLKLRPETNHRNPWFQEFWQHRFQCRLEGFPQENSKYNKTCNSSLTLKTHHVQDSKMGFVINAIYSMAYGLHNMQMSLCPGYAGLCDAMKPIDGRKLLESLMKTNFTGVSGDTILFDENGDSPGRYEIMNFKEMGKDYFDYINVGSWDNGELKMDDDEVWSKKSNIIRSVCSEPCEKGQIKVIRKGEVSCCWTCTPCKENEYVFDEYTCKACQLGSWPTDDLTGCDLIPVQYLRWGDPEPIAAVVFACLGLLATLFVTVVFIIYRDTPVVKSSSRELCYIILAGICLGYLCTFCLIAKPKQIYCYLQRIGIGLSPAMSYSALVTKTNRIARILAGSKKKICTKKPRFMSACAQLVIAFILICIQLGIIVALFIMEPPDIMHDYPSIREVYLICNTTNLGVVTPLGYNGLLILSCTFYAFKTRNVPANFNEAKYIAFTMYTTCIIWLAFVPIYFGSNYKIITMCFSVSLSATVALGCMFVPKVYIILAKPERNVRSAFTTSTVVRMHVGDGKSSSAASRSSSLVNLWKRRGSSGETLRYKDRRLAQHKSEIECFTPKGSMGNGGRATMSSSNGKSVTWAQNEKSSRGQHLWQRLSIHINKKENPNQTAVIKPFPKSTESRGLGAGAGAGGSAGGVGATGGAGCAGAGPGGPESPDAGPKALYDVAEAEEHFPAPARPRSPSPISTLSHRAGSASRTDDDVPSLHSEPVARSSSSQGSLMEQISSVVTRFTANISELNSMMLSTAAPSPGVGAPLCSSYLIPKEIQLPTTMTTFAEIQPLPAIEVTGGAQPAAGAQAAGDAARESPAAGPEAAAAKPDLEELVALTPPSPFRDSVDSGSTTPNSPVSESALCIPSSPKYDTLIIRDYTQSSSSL

One experiment concerns the target T1, mGluR5 receptor (human) (Homo sapiens, UniProt P41594).
T1 construct: host or cells: CHO cells (CHO-hmGluR5), expression induced with doxycycline
The experiment in a line: Functional Ca2+ influx assay in the mGluR5 receptor assay (CHO-hmGluR5 cells, DHPG). To be noted: 10 μM DHPG, Ki=IC50/(1+(AGconc/EC50)). In kind it is cell-based. The source says:
II. Method for Determining Ca^2+ Influx in the mGluR5 Receptor Assay
An agonistic and/or antagonistic substance action on the mGluR5 receptor of the rat species may be determined with the following assay. According to this assay, intracellular Ca^2+ release is quantified after activation of the mGluR5 receptor with the assistance of a Ca^2+-sensitive dye (type Fluo-4, Molecular Probes Europe BV, Leiden, Netherlands) in a FlexStation (Molecular Devices, Sunnyvale, USA).
Description of the Functional Ca^2+ Influx Assay
20,000 CHO-hmGluR5 cells/well (Euroscreen, Gosselies, Belgium) are pipetted out into 96 well plates (BD Biosciences, Heidelberg, Germany, Ref. 356640, clear bottom, 96 well, poly-D-lysine) and incubated overnight in HBSS buffer (Gibco No. 14025-050) with the following additives: 10% FCS (GIBCO, 10270-106) and doxycycline (BD Biosciences Clontech 631311 600 ng/ml).
For the purpose of functional investigation, the cells were loaded with 2 μM Fluo-4 and 0.01 vol. % Pluronic F127 (Molecular Probes Europe BV, Leiden, Netherlands) in HBSS buffer (Hank's buffered saline solution, Gibco Invitrogen GmbH, Karlsruhe, Germany) with Probenicid (Sigma P8761, 0.69 mg/ml) for 30 min at 37° C.
The cells are then washed 3 times with washing buffer (HBSS buffer, Gibco No. 14025-050, with Probenicid (Sigma P8761, 0.69 [mg]/ml) and then resuspended with the same buffer to make up to 100 μl. After 15 min the plates are transferred for determination of Ca^2+ measurements in the presence of DHPG ((S)-3,5-dihydroxyphenylglycine, Tocris Biotrend Chemikalien GmbH, Cologne, Germany, final DHPG concentration: 10 μM) and in the presence or absence of test substances into a FLuorometric Imaging Plate Reader (FLIPR, Molecular Devices, Sunnyvale, Calif.).
Ca^2+-dependent fluorescence is measured before and after addition of test substances. Quantification proceeds by measuring the highest fluorescence intensity over time.
After recording a fluorescence baseline for 10 s, 50 μl of test substance solution (various test substance concentrations in HBSS buffer with 1% DMSO and 0.02% Tween 20, Sigma) are added and the fluorescence signal is measured for 6 min. Then, 50 μl of DHPG solution ((S)-3,5-dihydroxyphenylglycine, Tocris Biotrend Chemikalien GmbH, Cologne, Germany, final DHPG concentration: 10 μM) are added and Ca^2+ influx is simultaneously measured for 60 s. The final DMSO concentration amounts to 0.25% and the final Tween 20 content amounts to 0.005%. The data are analysed with Microsoft Excel and GraphPad Prism. The dose-response curves are calculated with non-linear regression and IC50 values are determined. Each data point is determined in triplicate and IC50 values are averaged from a minimum of 2 independent measurements.
Ki values are calculated using the following formula: Ki=IC50/(1+(AGconc/EC50)).
AGconc=10 μM; EC50 corresponds to the DHPG concentration which is necessary for the semimaximal influx of Ca^2+.
What is called Ki is the equilibrium dissociation constant of an inhibitor or competing ligand from its target. Low values mean tighter binding, high ones weaker binding. As to `O=C(C#Cc1ccccc1)N1CCc2ccccc2C1` [Example 1, 2-(3-phenyl-propiolyl)-1,2,3,4-tetrahydro-isoquinoline], the Ki is 0.0115 µM. That is a double-digit nanomolar value.

In turn, `CC1Cc2ccccc2CN1C(=O)C#Cc1cccc(Cl)c1` (stereo not shown) [Example 19, 2-(3-(3-chlorophenyl)-propiolyl)-3-methyl-1,2,3,4-tetrahydro-isoquinoline] gave a Ki of 0.0049 µM. For the molecule `O=C(C#Cc1cccc(Cl)c1)N1CCc2ccccc2CC1` [Example 12, 3-(3-(3-chlorophenyl)-propiolyl)-1,2,4,5-tetrahydrobenzo[d]azepine], the Ki came to 0.0003 µM. The molecule `O=C(C#Cc1cccc(Cl)c1)N1CCc2ccccc2C1` [Example 5, 2-(3-(3-chlorophenyl)-propiolyl)-1,2,3,4-tetrahydro-isoquinoline] came in with an inhibitory constant (Ki) of 0.001 µM. Molecule `COc1cccc2c1CCN(C(=O)C#Cc1cccc(Cl)c1)C2` [Example 30, 2-(3-(3-chlorophenyl)-propiolyl)-5-methoxy-1,2,3,4-tetrahydro-isoquinoline] came in with an inhibition constant Ki of 0.0009 µM. This Ki and that of the molecule before are within 1.5-fold of each other.

Another experiment has as its target T2, mGluR5 receptor (pig) (Sus scrofa, UniProt I3LUI7).
T2 construct: 450 μg of protein from brain homogenate is incubated; from tissue; host or cells: pig brain hemispheres without medulla, cerebellum and pons
Nature of the experiment: [3H]-MPEP binding in the mGluR5 receptor binding assay (pig brain homogenate). The conditions noted are these: 10 μM test compound; 5 nM [3H]-MPEP; 450 μg protein from pig brain homogenate; 60 min, room temperature. The procedure: I. Method for Determining the Inhibition of [^3H]-MPEP Binding in the mGluR5 Receptor Binding Assay
Pig brain homogenate is produced by homogenisation (Polytron Pt 3000, Kinematica AG, 10,000 revolutions per minute for 90 seconds) of pig brain hemispheres without medulla, cerebellum and pons in a buffer of pH 8.0 (30 mM Hepes, Sigma, order number H3375+1 tablet Complete Roche Diagnostics, order number 1836145 made up to 100 ml) in a ratio of 1:20 (brain weight/volume) and differential centrifugation at 900×g and 40,000×g. 450 μg of protein from brain homogenate is incubated in each case in 250 μl incubation batches in 96-well microtitre plates with 5 nM ^3[H]-MPEP (Tocris, order number R1212) (MPEP=[…]) and the compounds to be investigated ([…]) in the buffer (as above) at room temperature for 60 min.
The batches are then filtered with the assistance of a Brandel Cell Harvester (Brandel, Robotic 9600 model) on Unifilter plates with glass filter mats (Perkin Elmer, order number 6005177) and then washed 3 times with buffer (as above) using 250 μl per sample. The filter plates are then dried for 60 min at 55° C. Then 30 μl of Ultima Gold™ scintillating material (Packard BioScience, order number 6013159) is added per well and after 3 hours the samples are measured using the β counter (Microbeta, Perkin Elmer). Nonspecific binding is determined by the addition of 10 μM MPEP (Tocris, order number 1212).
For the molecule `CC1Cc2ccccc2N1C(=O)C#Cc1ccccc1C(F)(F)F` (stereo not shown) [Example 75, 1-(3-(2-trifluoromethylphenyl)-propiolyl)-2-methyl-indoline], the “mGluR5 receptor (pig) (10 μM) Inhibition (%)” value is reported as 45%.

On to `Cc1ccccc1C#CC(=O)N1c2ccccc2CC1C` (stereo not shown) [Example 74, 1-(3-(2-tolyl)-propiolyl)-2-methyl-indoline], for which the “mGluR5 receptor (pig) (10 μM) Inhibition (%)” value came out at 12%. With `O=C(C#Cc1ccc(C(F)(F)F)cc1)N1CCc2ccccc2C1` [Example 41, 2-(3-(4-trifluoromethylphenyl)-propiolyl)-1,2,3,4-tetrahydro-isoquinoline], the “mGluR5 receptor (pig) (10 μM) Inhibition (%)” value is 16%. For `O=C(C#Cc1ccc(F)cc1)N1CCc2ccccc2C1` [Example 64, 2-(3-(4-fluorophenyl)-propiolyl)-1,2,3,4-tetrahydro-isoquinoline], the “mGluR5 receptor (pig) (10 μM) Inhibition (%)” value stood at 88%.

Regarding `Cc1ccc(C#CC(=O)N2CCCc3ccccc32)cc1` [Example 57, 1-(3-(4-tolyl)-propiolyl)-1,2,3,4-tetrahydro-quinoline], the “mGluR5 receptor (pig) (10 μM) Inhibition (%)” value turned out to be 18%.

Turning to `Cc1cccc(C#CC(=O)N2c3ccccc3CC2C)c1C` (stereo not shown) [Example 46, 1-(3-(2,3-dimethylphenyl)-propiolyl)-2-methyl-indoline], the “mGluR5 receptor (pig) (10 μM) Inhibition (%)” value is 18%.

With `Cc1cc(C#CC(=O)N2c3ccccc3CC2C)ccc1F` (stereo not shown) [Example 36, 1-(3-(4-fluoro-3-methylphenyl)-propiolyl)-2-methyl-indoline], the “mGluR5 receptor (pig) (10 μM) Inhibition (%)” value was 27%.

Turning to `CC1Cc2ccccc2N1C(=O)C#Cc1ccc(F)cc1` (stereo not shown) [Example 65, 1-(3-(4-fluorophenyl)-propiolyl)-2-methyl-indoline], the “mGluR5 receptor (pig) (10 μM) Inhibition (%)” value is on record as 34%. For `CC1Cc2ccccc2N1C(=O)C#Cc1ccccc1F` (stereo not shown) [Example 38, 1-(3-(2-fluorophenyl)-propiolyl)-2-methyl-indoline], the “mGluR5 receptor (pig) (10 μM) Inhibition (%)” value came out at 49%. `Cc1ccc(C#CC(=O)N2CCc3ccccc3C2)cc1F` [Example 67, 2-(3-(3-fluoro-4-methylphenyl)-propiolyl)-1,2,3,4-tetrahydro-isoquinoline]: the “mGluR5 receptor (pig) (10 μM) Inhibition (%)” value worked out at 12%. Same read-out and setting: then `Cc1cccc(C#CC(=O)N2c3ccccc3CC2C)c1` (stereo not shown) [Example 52, 1-(3-(3-tolyl)-propiolyl)-2-methyl-indoline], with 68%; and `O=C(C#Cc1cccs1)N1CCc2ccccc2C1` [Example 55, 2-(3-(2-thienyl)-propiolyl)-1,2,3,4-tetrahydro-isoquinoline], with 86%. With `CC1Cc2ccccc2N1C(=O)C#Cc1ccc(F)cc1F` (stereo not shown) [Example 33, 1-(3-(2,4-difluorophenyl)-propiolyl)-2-methyl-indoline], the “mGluR5 receptor (pig) (10 μM) Inhibition (%)” value amounted to 27%.

The experiment is the same for the next values; noted with them: pig brain homogenate; 5 nM [3H]-MPEP.
A word on the IC50: it is the concentration at which inhibition is half-maximal. As to `O=C(C#Cc1ccccc1)N1CCc2ccccc2C1` [Example 1, 2-(3-phenyl-propiolyl)-1,2,3,4-tetrahydro-isoquinoline], the 50% inhibitory concentration (IC50) stood at 0.18 µM. `CC1Cc2ccccc2CN1C(=O)C#Cc1cccc(Cl)c1` (stereo not shown) [Example 19, 2-(3-(3-chlorophenyl)-propiolyl)-3-methyl-1,2,3,4-tetrahydro-isoquinoline]: the IC50 is 0.053 µM.

With `O=C(C#Cc1ccccc1)N1CCc2onc(-c3ccccc3)c2C1` [Example 9, 3-phenyl-5-(3-phenyl-propiolyl)-4,5,6,7-tetrahydro-isoxazolo[4,5-c]pyridine], the IC50 was determined as 2.36 µM.

In turn, `Cc1noc2c1CN(C(=O)C#Cc1ccccc1)CC2` [Example 8, 3-methyl-5-(3-phenyl-propiolyl)-4,5,6,7-tetrahydro-isoxazolo[4,5-c]pyridine] gave an IC50 of 3.55 µM. `COc1cc2c(cc1O)CCN(C(=O)C#Cc1cccc(Cl)c1)C2` [Example 16, 2-(3-(3-chlorophenyl)-propiolyl)-6-hydroxy-7-methoxy-1,2,3,4-tetrahydro-isoquinoline] returned a concentration for half-maximal inhibition (IC50) of 0.72 µM. As for `O=C(C#Cc1ccccc1)N1Cc2ccccc2C1` [Example 6, 2-(3-phenyl-propiolyl)-2,3-dihydro-isoindole], the IC50 was determined as 1.82 µM.

On to `Cc1ccc2c(c1)CCN(C(=O)C#Cc1cccc(Cl)c1)C2` [Example 20, 2-(3-(3-chlorophenyl)-propiolyl)-6-methyl-1,2,3,4-tetrahydro-isoquinoline], for which the 50% inhibitory concentration (IC50) was 0.055 µM.

The molecule `Cc1cccc2c1CCN(C(=O)C#Cc1cccc(Cl)c1)C2` [Example 26, 2-(3-(3-chlorophenyl)-propiolyl)-5-methyl-1,2,3,4-tetrahydro-isoquinoline] came in with an IC50 of 0.0047 µM. On the same count and under the same terms, for `O=C(C#Cc1cccc(Cl)c1)N1CCc2ccccc2CC1` [Example 12, 3-(3-(3-chlorophenyl)-propiolyl)-1,2,4,5-tetrahydrobenzo[d]azepine] the value was 0.023 µM; for `O=C(C#Cc1cccc(Cl)c1)N1CCc2ccc(O)cc2C1` [Example 28], 0.087 µM.

In turn, `O=C(C#Cc1ccccc1)N1CCc2ncccc2C1` [Example 4, 6-(3-phenyl-propiolyl)-5,6,7,8-tetrahydro-[1,6]naphthyridine] gave a 50% inhibitory concentration (IC50) of 2.32 µM. On the same count and under the same terms, then `O=C(C#Cc1cccc(Cl)c1)N1CCc2ccccc2C1` [Example 5, 2-(3-(3-chlorophenyl)-propiolyl)-1,2,3,4-tetrahydro-isoquinoline], with 0.023 µM. As for `Cc1cccc2c1CN(C(=O)C#Cc1cccc(Cl)c1)CC2` [Example 24, 2-(3-(3-chlorophenyl)-propiolyl)-8-methyl-1,2,3,4-tetrahydro-isoquinoline], the half-inhibitory concentration (IC50) was found to be 0.0045 µM. This IC50 lies about 5.1-fold lower than the previous one. In turn, `COc1ccc2c(c1)CCN(C(=O)C#Cc1ccccc1)C2` [Example 14, 6-methoxy-2-(3-phenyl-propiolyl)-1,2,3,4-tetrahydro-isoquinoline] showed a 50% inhibitory concentration (IC50) of 3.1 µM. In turn, `COc1cccc2c1CCN(C(=O)C#Cc1cccc(Cl)c1)C2` [Example 30, 2-(3-(3-chlorophenyl)-propiolyl)-5-methoxy-1,2,3,4-tetrahydro-isoquinoline] displayed an IC50 of 0.0015 µM. `O=C(C#Cc1cccc(Cl)c1)N1CCn2cccc2C1` [Example 27, 2-(3-(3-chlorophenyl)-propiolyl)-1,2,3,4-tetrahydropyrrolo[1,2-a]pyrazine]: the IC50 came to 0.026 µM.
